Results: article PMC2676897 (Bioorganic & medicinal chemistry letters, 2009)

Columns and labels:
MDA-MB231 cells = experiment: Growth inhibition of ER-negative MDA-MB231 cells, MTS assay; details: for growth inhibitory activity: ER-negative MDA-MB231 cells, 72 h, MTS; for toxicity to cells: MDA-MB231 cells, 25 μM
[1] = system: ATCC MCF7 cells (ERα expressing); experiment: Inhibition of E2-induced proliferation, MTS assay, ATCC MCF7 expressing only ERα; assay type: cell-based, human; details: 1 nM E2, 6 days

With O=C(c1ccc(OCCN2CCCCC2)cc1)c1c(-c2ccc(O)cc2)sc2cc(O)ccc12 [RAL, Raloxifene, reference compound] the growth inhibitory activity (MDA-MB231 cells) was “did not demonstrate significant growth inhibitory activity” and the toxicity to cells (MDA-MB231 cells) was “toxicity”.

CCCC[C@@H]1C[C@H]1[C@@H](N)c1ccc(-c2ccc(O)cc2)cc1F.Cl [Compound 13] was tested, and the growth inhibitory activity (MDA-MB231 cells) was “did not demonstrate significant growth inhibitory activity” and the toxicity to cells (MDA-MB231 cells) was “toxicity”.

CCCC[C@@H]1C[C@H]1[C@@H](NC(=O)c1ccccc1)c1ccc(-c2ccc(O)cc2)cc1F [Compound 11b] was tested, and the “GI50, inhibition of E2-induced proliferation” value [1] was “did not demonstrate inhibition”, the growth inhibitory activity (MDA-MB231 cells) was “did not demonstrate significant growth inhibitory activity” and the toxicity to cells (MDA-MB231 cells) was “toxicity”.
